Laboratory results taken from a compilation of properties of binary mixtures (doi:10.1016/j.jct.2020.106320).

Experiment: xn = mol fraction of the nth substance listed
Conditions: 100 kPa

CCO + CC[n+]1ccn(CCOC)c1.N#C[S-]
viscosity (288.15 K, x2 = 0): 1.319 mPa·s | viscosity (293.15 K, x2 = 0): 1.194 mPa·s | viscosity (298.15 K, x2 = 0): 1.085 mPa·s | viscosity (303.15 K, x2 = 0): 0.988 mPa·s | viscosity (313.15 K, x2 = 0): 0.826 mPa·s | viscosity (318.15 K, x2 = 0): 0.757 mPa·s

CC[n+]1ccn(CCOC)c1.N#C[S-] + CCO
viscosity (288.15 K, x1 = 0.1): 2.39 mPa·s | viscosity (288.15 K, x1 = 0.1999): 3.97 mPa·s | viscosity (288.15 K, x1 = 0.3002): 6.39 mPa·s | viscosity (288.15 K, x1 = 0.3995): 10.15 mPa·s | viscosity (288.15 K, x1 = 0.5001): 15.11 mPa·s | viscosity (288.15 K, x1 = 0.6): 24.1 mPa·s | viscosity (288.15 K, x1 = 0.7): 33.1 mPa·s | viscosity (288.15 K, x1 = 0.797): 53.1 mPa·s | viscosity (288.15 K, x1 = 0.8964): 70.8 mPa·s | viscosity (288.15 K, x1 = 1): 93.1 mPa·s | viscosity (293.15 K, x1 = 0.1999): 3.53 mPa·s | viscosity (293.15 K, x1 = 0.3002): 5.59 mPa·s | viscosity (293.15 K, x1 = 0.5001): 12.79 mPa·s | viscosity (293.15 K, x1 = 0.7): 27.1 mPa·s | viscosity (293.15 K, x1 = 0.8964): 55.6 mPa·s | viscosity (293.15 K, x1 = 1): 70.8 mPa·s | viscosity (298.15 K, x1 = 0.1): 1.95 mPa·s | viscosity (298.15 K, x1 = 0.1999): 3.16 mPa·s | viscosity (298.15 K, x1 = 0.3995): 7.64 mPa·s | viscosity (298.15 K, x1 = 0.5001): 10.96 mPa·s | viscosity (298.15 K, x1 = 0.6): 17.44 mPa·s | viscosity (298.15 K, x1 = 0.7): 22.7 mPa·s | viscosity (298.15 K, x1 = 0.797): 34.3 mPa·s | viscosity (298.15 K, x1 = 0.8964): 44.3 mPa·s | viscosity (298.15 K, x1 = 1): 55.8 mPa·s | viscosity (303.15 K, x1 = 0.1): 1.77 mPa·s | viscosity (303.15 K, x1 = 0.1999): 2.85 mPa·s | viscosity (303.15 K, x1 = 0.3995): 6.7 mPa·s | viscosity (303.15 K, x1 = 0.5001): 9.52 mPa·s | viscosity (303.15 K, x1 = 0.6): 14.4 mPa·s | viscosity (303.15 K, x1 = 0.7): 19.4 mPa·s | viscosity (303.15 K, x1 = 0.797): 28.2 mPa·s | viscosity (308.15 K, x1 = 0.1): 1.613 mPa·s | viscosity (308.15 K, x1 = 0.3002): 3.97 mPa·s | viscosity (308.15 K, x1 = 0.3995): 5.93 mPa·s | viscosity (308.15 K, x1 = 0.5001): 8.32 mPa·s | viscosity (308.15 K, x1 = 0.6): 12.12 mPa·s | viscosity (313.15 K, x1 = 0.1): 1.476 mPa·s | viscosity (313.15 K, x1 = 0.1999): 2.34 mPa·s | viscosity (313.15 K, x1 = 0.3002): 3.58 mPa·s | viscosity (313.15 K, x1 = 0.5001): 7.34 mPa·s | viscosity (313.15 K, x1 = 0.6): 10.4 mPa·s | viscosity (313.15 K, x1 = 0.7): 14.37 mPa·s | viscosity (313.15 K, x1 = 0.8964): 24.7 mPa·s | viscosity (313.15 K, x1 = 1): 29.7 mPa·s | viscosity (318.15 K, x1 = 0.1): 1.355 mPa·s | viscosity (318.15 K, x1 = 0.3002): 3.25 mPa·s | viscosity (318.15 K, x1 = 0.3995): 4.71 mPa·s | viscosity (318.15 K, x1 = 0.5001): 6.51 mPa·s | viscosity (318.15 K, x1 = 0.6): 9.03 mPa·s | viscosity (318.15 K, x1 = 0.7): 12.25 mPa·s | viscosity (318.15 K, x1 = 0.797): 17.33 mPa·s | viscosity (318.15 K, x1 = 0.8964): 20.9 mPa·s | viscosity (318.15 K, x1 = 1): 24.9 mPa·s
